From US6706664B1, “Benzoxazole compounds, process for the preparation thereof and herbicides” (UBE Industries, Ltd., priority 1999, dated 2004)

Columns and labels:
Design in all cases: key: 0: normal development; 1: Less damaged; 2: Slightly damaged; 3: Moderately damaged; 4: Severely damaged; 5: All killed
solgum = assay: Soil treatment test for upland field; format: in vivo; details: 500 g/ha, glass house 25° C., 3 weeks
Summary of the method: (§1)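 Seeds planted in Wagner pots of Ube soil (alluvial) and covered. Wettable powder diluted in 0.05% surfactant water, sprayed uniformly onto soil at 500 g/ha effective rate. Grown 3 weeks, glasshouse, mean 25° C, then damage rated visually 0–5.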

soybean [1] = assay: Soil treatment test for upland field; format: in vivo; details: 500 g/ha, glass house 25° C., 3 weeks
Summary of the method: as §1

sugar beat = assay: Soil treatment test for upland field; format: in vivo; details: 500 g/ha, glass house 25° C., 3 weeks
Summary of the method: as §1

annual bluegrass [2] = assay: Soil treatment test for upland field; format: in vivo, Poa annua; details: 500 g/ha, glass house 25° C., 3 weeks
Summary of the method: as §1

barnyardgrass = assay: Foliar spread test for upland field; format: in vivo, Echinochloa crusgalli; details: foliar spray 500 ppm, 3 weeks, rank vs non-treated
Summary of the method: (§2)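 Crops and weeds grown about 2 weeks in volcanic ash soil in a glasshouse, then sprayed with wettable-powder formulations diluted to 500 ppm in water with 0.5% surfactant. After 3 weeks at 25 °C, injury scored visually 0 (normal) to 5 (all killed).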

green foxtail = assay: Foliar spread test for upland field; format: in vivo, Setaria viridis; details: foliar spray 500 ppm, 3 weeks, rank vs non-treated
Summary of the method: as §2

annual bluegrass [3] = assay: Foliar spread test for upland field; format: in vivo, Poa annua; details: foliar spray 500 ppm, 3 weeks, rank vs non-treated
Summary of the method: as §2

cotton = assay: Foliar spread test for upland field; format: in vivo; details: foliar spray 500 ppm, 3 weeks, rank vs non-treated
Summary of the method: (§3)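 Post-emergence foliar spray, 500 ppm (wettable powder in water + 0.5% surfactant), on ~2-week-old plants grown in volcanic ash soil; glasshouse, avg 25° C, 3 wk; visual damage score 0–5.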

soybean [4] = assay: Foliar spread test for upland field; format: in vivo; details: foliar spray 500 ppm, 3 weeks, rank vs non-treated
Summary of the method: as §3

Large crabgrass [5] = assay: Foliar spread test for upland field; format: in vivo, Digitaria adscendens; details: foliar spray 500 ppm, 3 weeks, rank vs non-treated
Summary of the method: as §2

Large crabgrass [6] = assay: Soil treatment test for upland field; format: in vivo, Digitaria adscendens; details: 500 g/ha, glass house 25° C., 3 weeks
Summary of the method: as §1

bulrush = assay: Herbicidal test for paddy field; format: in vivo, Scrips juncoides; details: paddy field pot, 500 g/ha dropwise at 1.5 leaf stage of barnyardgrass, 3 weeks, rank vs non-treated
Summary of the method: (§4)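 Flooded pots (3 cm water) of alluvial soil were sown with seeds or tubers, and wettable-powder formulations in 0.05% surfactant water were dripped in at 500 g/ha at the 1.5-leaf stage of barnyardgrass. Plants were kept 3 weeks in a glasshouse at an average 25° C. Damage was scored 0 (normal) to 5 (all killed) against untreated controls.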

blackgrass = assay: Soil treatment test for upland field; format: in vivo, Alopecurus aegualis; details: 500 g/ha, glass house 25° C., 3 weeks
Summary of the method: as §1

flat sedge = assay: Herbicidal test for paddy field; format: in vivo, Cyperus serotinus; details: paddy field pot, 500 g/ha dropwise at 1.5 leaf stage of barnyardgrass, 3 weeks, rank vs non-treated
Summary of the method: as §4

morning glory = assay: Foliar spread test for upland field; format: in vivo, Ipomoea spps.; details: foliar spray 500 ppm, 3 weeks, rank vs non-treated
Summary of the method: as §2

## CCCC(Oc1cccc(C(F)(F)F)c1)c1nc2cc(C#N)ccc2o1 (stereo not drawn) [Compound 192]
solgum
  Effects Solgum: 2
Soybean [1]
  Effects Soybean: 0
Sugar beat
  Effects Sugar beat: 5
Annual bluegrass [2]
  Effects Annual bluegrass: 5
barnyardgrass
  Effects Barnyardgrass: 2
Green foxtail
  Effects Green foxtail: 5
Annual bluegrass [3]
  Effects Annual bluegrass: 4
cotton
  Effects Cotton: 3
Soybean [4]
  Effects Soybean: 3
Large crabgrass [5]
  Effects Large crabgrass: 3
Large crabgrass [6]
  Effects Large crabgrass: 5
bulrush
  Effect Bulrush: 4
blackgrass
  Effects Blackgrass: 5
Flat sedge
  Effect Flat sedge: 4
Morning glory
  Effects Morning glory: 2

## CCC(Oc1ccc(F)c(C(F)(F)F)c1)c1nc2cc(F)c(F)cc2o1 (stereo not drawn) [Compound 284]
solgum
  Effects Solgum: 2
Soybean [1]
  Effects Soybean: 2
Sugar beat
  Effects Sugar beat: 5
Annual bluegrass [2]
  Effects Annual bluegrass: 5
barnyardgrass
  Effects Barnyardgrass: 1
Green foxtail
  Effects Green foxtail: 4
Annual bluegrass [3]
  Effects Annual bluegrass: 3
cotton
  Effects Cotton: 3
Soybean [4]
  Effects Soybean: 5
Large crabgrass [5]
  Effects Large crabgrass: 4
Large crabgrass [6]
  Effects Large crabgrass: 5
bulrush
  Effect Bulrush: 4
blackgrass
  Effects Blackgrass: 5
Flat sedge
  Effect Flat sedge: 4
Morning glory
  Effects Morning glory: 3

## CCC(Oc1ccc(F)c(C(F)(F)F)c1)c1nc2cc(Cl)c(C)cc2o1 (stereo not drawn) [Compound 340]
solgum
  Effects Solgum: 3
Soybean [1]
  Effects Soybean: 0
Sugar beat
  Effects Sugar beat: 5
Annual bluegrass [2]
  Effects Annual bluegrass: 5
barnyardgrass
  Effects Barnyardgrass: 2
Green foxtail
  Effects Green foxtail: 4
Annual bluegrass [3]
  Effects Annual bluegrass: 3
cotton
  Effects Cotton: 3
Soybean [4]
  Effects Soybean: 3
Large crabgrass [5]
  Effects Large crabgrass: 4
Large crabgrass [6]
  Effects Large crabgrass: 5
bulrush
  Effect Bulrush: 4
blackgrass
  Effects Blackgrass: 4
Flat sedge
  Effect Flat sedge: 2
Morning glory
  Effects Morning glory: 3

## CCC(Oc1cccc(OC(F)(F)F)c1)c1nc2cc([N+](=O)[O-])ccc2o1 (stereo not drawn) [Compound 450]
solgum
  Effects Solgum: 2
Soybean [1]
  Effects Soybean: 1
Sugar beat
  Effects Sugar beat: 5
Annual bluegrass [2]
  Effects Annual bluegrass: 5
barnyardgrass
  Effects Barnyardgrass: 3
Green foxtail
  Effects Green foxtail: 3
Annual bluegrass [3]
  Effects Annual bluegrass: 4
cotton
  Effects Cotton: 5
Soybean [4]
  Effects Soybean: 4
Large crabgrass [5]
  Effects Large crabgrass: 4
Large crabgrass [6]
  Effects Large crabgrass: 5
bulrush
  Effect Bulrush: 4
blackgrass
  Effects Blackgrass: 5
Flat sedge
  Effect Flat sedge: 3
Morning glory
  Effects Morning glory: 2
